Experimental data published in patent US7307063B2, “Melanocortin metallopeptides for treatment of sexual dysfunction” (Palatin Technologies, Inc., priority 2001, dated 2007).
Non-standard residues stand in square brackets, D forms with d. No end group written: not given here. *: point of attachment. 2Nal = N[C@@H](Cc1ccc2ccccc2c1)C(=O)O; Heptanoyl = CCCCCCC(=O)*; Nle = CCCC[C@H](N)C(=O)O

Assays:
[1] = molecular target: T1, MC4-R (Homo sapiens, UniProt P32245); assay: Competitive binding assay: inhibition of 125I-NDP-α-MSH binding to HEK-293 membranes with cloned human receptor subtype 4; settings: Table 6, mean of triplicate
T1 construct: expressed in transfected cells; host or cells: HEK-293
Procedure: (§1) Rhenium-complexed metallopeptides of the formulas given in Table 1 were prepared, with the metallopeptides complexed with rhenium using the rhenium transfer agent ReOCl3(PPh3)2 in the presence of 1,8-Diazabicyclo[5,4,0] undec-7-ene as a base, as disclosed in International Application PCT/US00/16396, filed Jun. 14, 2000, Melanocortin Metallopeptide Constructs, Combinatorial Libraries and Applications, incorporated by reference herein. Affinities of compounds were measured using membranes from HEK-293 cells containing cloned human melanocortin receptor subtypes 3, 4 and 5. MC1-R membranes were isolated from B16—F10 mouse melanoma cells. The assay tube also contained a chosen concentration of the test peptide of this invention, complexed to a rhenium metal ion as indicated, for determining its efficacy in inhibiting the binding of ^125I-NDP-α-MSH to its receptor. Non-specific binding was measured by complete inhibition of binding of ^125I-NDP-α-MSH in the assay with the presence of 1 μM α-MSH. 100% specific binding was defined as the difference in radioactivity (cpm) bound to cell membranes in the absence and presence of 1 μM α-MSH. The cpm obtained in presence of test compounds were normalized with respect to 100% specific binding to determine the percent inhibition of ^125I-NDP-α-MSH binding.
(§2) Peptide sequences set forth in Table 6 were prepared using conventional synthetic means. The resulting sequences were rhenium-complexed to form metallopeptides, with the metallopeptides complexed with rhenium using the rhenium transfer agent ReOCl3(PPh3)2 in the presence of 1,8-Diazabicyclo[5,4,0] undec-7-ene as a base. Percent inhibition was determined as in Example 1 using the Re-complexed metallopeptides, using the same methods as described therein. All measures are means of triplicate determinations.

[2] = molecular target: T2, MC1-R (Mus musculus, UniProt Q01727); assay: Competitive binding assay: inhibition of 125I-NDP-α-MSH binding to membranes from B16-F10 mouse melanoma cells; settings: Table 6, mean of triplicate
T2 construct: MC1-R membranes were isolated from B16—F10 mouse melanoma cells; endogenous in cells; host or cells: B16-F10 mouse melanoma cells
Procedure: as §1, §2

T2 sequence (Q01727 whole entry): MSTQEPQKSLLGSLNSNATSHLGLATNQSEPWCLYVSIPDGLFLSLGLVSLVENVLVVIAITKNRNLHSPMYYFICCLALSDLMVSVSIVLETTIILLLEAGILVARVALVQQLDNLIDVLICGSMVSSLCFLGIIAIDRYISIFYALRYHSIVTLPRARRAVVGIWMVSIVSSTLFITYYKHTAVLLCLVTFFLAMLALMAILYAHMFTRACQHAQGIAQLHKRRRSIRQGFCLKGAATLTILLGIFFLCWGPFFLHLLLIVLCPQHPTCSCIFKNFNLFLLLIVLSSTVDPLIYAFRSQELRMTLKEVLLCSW
T1 sequence (P32245 whole entry): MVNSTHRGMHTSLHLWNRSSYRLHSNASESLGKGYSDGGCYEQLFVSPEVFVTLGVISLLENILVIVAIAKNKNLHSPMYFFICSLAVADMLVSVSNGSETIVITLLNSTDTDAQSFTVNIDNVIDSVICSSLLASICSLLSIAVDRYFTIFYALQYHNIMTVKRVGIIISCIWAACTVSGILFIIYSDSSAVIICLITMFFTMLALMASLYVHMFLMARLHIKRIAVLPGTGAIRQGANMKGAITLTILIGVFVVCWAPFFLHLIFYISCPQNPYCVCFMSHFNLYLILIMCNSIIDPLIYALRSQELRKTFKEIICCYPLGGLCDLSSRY

Row | Substance | % Inhibition of Binding hMC4-R ([1]; 1 μM) [%] | % Inhibition of Binding MC1-R ([2]; 1 μM) [%] | % Inhibition of Binding hMC4-R ([1]; 0.1 μM) [%] | % Inhibition of Binding MC1-R ([2]; 0.1 μM) [%]
1 | Ac-KA[dF][dC]RW-NH2 | 13 | 25 | – | –
2 | 3′-Br Phenyl acetyl-Arg-Ala-D-Phe(4′-Me)-Cys-Trp-NH2 | 96 | 25 | – | –
3 | Ser(Bzl)-D-Phe(4′-Cl)-Arg-Nal 2′-Cys-NH2 | 99 | 35 | – | –
4 | Ac-WA[dF][dC]R-NH2 | 0 | 24 | – | –
5 | PhCO-D-Phe(2′-Cl)-Lys-Nal 2′-Cys-NH2 | 41 | 60 | – | –
6 | D-Phe(2′-Cl)-Lys-Nal 2′-Cys-NH2 | 69 | 51 | – | –
7 | Ac-His-HyP(Bzl)-D-Phe(2′-Cl)-Arg-Nal 2′-Cys-NH2 | 99 | 84 | – | –
8 | Heptanoyl-Ser(Bzl)-D-Nal 2′-Gly-Trp-Cys-Lys-NH2 | 0 | 27 | – | –
9 | Ph(CH2)-CO-D-Phe(2′-Cl)-Lys-Nal 2′-Cys-NH2 | 22 | 11 | – | –
10 | Heptanoyl-Ser(Bzl)-D-Phe(4′-Cl)-Arg-Phe-Cys-NH2 | – | – | 32 | 11
11 | D-(N-Bzl) Phe(2′-Cl)-Lys-Nal 2′-Cys-NH2 | 97 | 69 | – | –
12 | Heptanoyl-Ser(Bzl)-D-Phe(2′-F)-Lys-Nal 2′-Cys-NH2 | 83 | 57 | – | –
13 | Heptanoyl-Ser(Bzl)-D-Phe(4′-Cl)-Arg-Hphe-Cys-NH2 | 43 | 38 | – | –
14 | Heptanoyl-Ser(Bzl)-D-Phe(2′-Br)-Lys-Nal 2′-Cys-NH2 | 82 | 27 | – | –
15 | Heptanoyl-Ser(Bzl)-D-Phe(2′-Cl)-Lys-Nal 2′-Cys-NH2 | 91 | 62 | – | –
16 | D-Phe-Arg-Trp-Cys-Lys-NH2 ([dF]RWCK-NH2; also: metallopeptide) | 81 | – | – | –
17 | Heptanoyl-D-Phe-Arg-Trp-Cys-Lys-NH2 (Heptanoyl-[dF]RWCK-NH2; also: metallopeptide) | 75 | 82 | – | –
18 | Ac-Nle-Arg-Arg-D-Nal 2′-Cys-Lys-NH2 | 96 | 100 | – | –
19 | Ac-Nle-Arg-Arg-D-Nal 2′-Cys-Trp-Lys-NH2 | – | – | 96 | 95
20 | Heptanoyl-H[dF]RWCK-NH2 | 98 | 100 | – | –
21 | Ph(CH2)3-CO-D-Phe(2′-Cl)-Lys-Nal 2′-Cys-NH2 | 33 | 17 | – | –

Row | Substance | % Inhibition of Binding hMC4-R ([1]; 1 μM) [%] | % Inhibition of Binding MC1-R ([2]; 1 μM) [%] | % Inhibition of Binding hMC4-R ([1]; 0.1 μM) [%] | % Inhibition of Binding MC1-R ([2]; 0.1 μM) [%]
22 | FR[dW]CW-NH2 | 34 | 37 | – | –
23 | Ac-KA[dF][dC]R-NH2 | 0 | 8 | – | –
24 | FR[dW]CK-NH2 | 12 | 21 | – | –
25 | Heptanoyl-Ser(Bzl)-D-Phe(4′-Cl)-Arg-Tyr-Cys-NH2 | – | – | 13 | 6
26 | Heptanoyl-Ser(Bzl)-D-Phe(4′-Cl)-Arg-Nal 1′-Cys-NH2 | – | – | 47 | 3
27 | Ac-[Nle]AH[dF]RW[dC]K-NH2 | 41 | 87 | – | –
28 | Heptanoyl-Ser(Bzl)-D-Phe(4′-Cl)-Arg-Tyr(3′-l)-Cys-NH2 | – | – | 92 | 12
29 | Ser(Bzl)-D-Phe(2′-Cl)-Lys-Nal 2′-Cys-NH2 | 50 | 33 | – | –
30 | 3′-Br Phenyl acetyl-Arg-Ala-D-Phe(4′-CF3)-Cys-Trp-NH2 | 95 | 22 | – | –
31 | [dF]RW[dC]K-NH2 | 42 | 23 | – | –
32 | Heptanoyl-Ser(Bzl)-D-Phe(4′-Cl)-Arg-Cys(Bzl)-Cys-NH2 | 72 | 30 | – | –
33 | Ac-[Nle]A[dF][dC]RW-NH2 | 3 | 29 | – | –
34 | Ph(CH2)2-CO-D-Phe(2′-Cl)-Lys-Nal 2′-Cys-NH2 | 26 | 0 | – | –
35 | Heptanoyl-Ser(Bzl)-D-Phe(4′-Cl)-Arg-Nal 2′-Cys-NH2 | – | – | 94 | 16
36 | NH2-(CH2)6-CO-Ser(Bzl)-D-Phe(4′-Cl)-Arg-D-Trp-Cys-NH2 | 97 | 48 | – | –
37 | Heptanoyl-Ser(Bzl)-D-Phe(4′-Cl)-Arg-Phe(2′-F)-Cys-NH2 | – | – | 46 | 14
38 | 3′-Cl Phenyl acetyl-Arg-Arg-D-Phe(4′-CF3)-Cys-Trp-NH2 | 99 | 85 | – | –
39 | Heptanoyl-Ser(Bzl)-D-Phe(4′-Cl)-Arg-Thr(Bzl)-Cys-NH2 | 92 | 4 | – | –
40 | Phe-Arg-Trp-Cys-Lys-NH2 (FRWCK-NH2; not fully specified; printed as Phe-Arg-Trp-Cys-Lys-NH2) | 64 | 53 | – | –
41 | Heptanoyl-Hphe-D-Phe(4′-Cl)-Arg-Trp-Cys-NH2 | – | – | 80 | 45
42 | 3′-Br-Phenylacetyl-Arg-Arg-D-Phe(4′-CH2PO3Et3)-Cys-Trp-NH2 | 61 | 97 | – | –

Row | Substance | % Inhibition of Binding hMC4-R ([1]; 1 μM) [%] | % Inhibition of Binding MC1-R ([2]; 1 μM) [%] | % Inhibition of Binding hMC4-R ([1]; 0.1 μM) [%] | % Inhibition of Binding MC1-R ([2]; 0.1 μM) [%]
43 | (R)-4-amino-5-phenyl pentanoyl-Lys-Ala-D-Phe(4′-Me)-Cys-Trp-NH2 | 46 | 23 | – | –
44 | 3′-Br Phenyl acetyl-Arg-Arg-D-Phe(3′-Cl)-Cys-Trp-NH2 | 96 | 79 | – | –
45 | 1-Naphthylacetyl-Arg-Arg-D-Phe(4′-Cl)-Cys-Nal 2′-NH2 | 98 | – | – | –
46 | Heptanoyl-Ser(Bzl)-D-Nal 2′-Arg-Trp-Cys-Lys-NH2 | 100 | 72 | – | –
47 | Heptanoyl-Ser(Bzl)-D-Phe(4′-Cl)-Arg-Nal 2′-Cys-Lys-NH2 | – | – | 97 | 78
48 | Ac-Ser(Bzl)-D-Phe(4′-Cl)-Arg-Nal 2′-Cys-NH2 | 97 | 49 | – | –
49 | Heptanoyl-Ala-Nal 2′-Cys-Trp-NH2 (Heptanoyl-A[2Nal]CW-NH2; also: metallopeptide, metal not given here) | 18 | 15 | – | –
50 | Heptanoyl-Ser(Bzl)-D-Phe(4′-Cl)-Arg-Phe(2′-Cl)-Cys-NH2 | – | – | 28 | 9
51 | (N-PhEt)-D-Phe(2′-Cl)-Lys-Nal 2′-Cys-NH2 | – | – | 80 | 64
52 | Heptanoyl-Ser(Bzl)-D-Phe(4′-Br)-Arg-Trp-Cys-NH2 | – | – | 90 | 21
53 | Ac-Nle-Arg-Ala-D-Nal 2′-Cys-Lys-NH2 | 36 | 23 | – | –
54 | Heptanoyl-Ser(Bzl)-D-Phe(4′-Cl)-Arg-Phe(3′-F)-Cys-NH2 | – | – | 43 | 19
55 | Heptanoyl-D-Hphe-D-Phe(2′-Cl)-Lys-Nal 2′-Cys-NH2 | 20 | 10 | – | –
56 | Ser(Bzl)-D-Phe(4′-Cl)-Arg-D-Trp-Cys-NH2 | 82 | 65 | – | –
57 | Heptanoyl-P[dF]RWCK-NH2 | 97 | 99 | – | –
58 | Phe-Arg-Trp-Cys-Trp-NH2 (FRWCW-NH2; not fully specified; printed as Phe-Arg-Trp-Cys-Trp-NH2) | 24 | 32 | – | –
59 | 4′-Aminomethyl-Phenylacetyl-Arg-Arg-D-Phe(4′-Cl)-Cys-Trp-NH2 | – | – | 57 | 81
60 | Ac-WA[dF][dC]RW-NH2 | 3 | 15 | – | –
61 | 2′-Naphthyl acetyl-Arg-Arg-D-Phe(3′-Cl)-Cys-Trp-NH2 | 90 | 78 | – | –
62 | Heptanoyl-[dP][dF]RWCK-NH2 | 71 | 88 | – | –
63 | [dF]RW[dC]W-NH2 | 45 | 53 | – | –
